Reference: ChEMBL document CHEMBL1152099, “C5-piperazinyl-1,4-benzodiazepines, water-soluble, orally bioa vailable CCKB/gastrin receptor antagonists” (Bioorg Med Chem Lett, 1995)
≈ marks a conversion by molar mass, not a printed value.

What was measured:
[1] = target: T1, Cholecystokinin receptor type A (Rattus norvegicus, UniProt P30551); test: Displacement of [125I]-BH CCK-8S from Cholecystokinin type A receptor in rat pancreas
T1 sequence (P30551 whole entry): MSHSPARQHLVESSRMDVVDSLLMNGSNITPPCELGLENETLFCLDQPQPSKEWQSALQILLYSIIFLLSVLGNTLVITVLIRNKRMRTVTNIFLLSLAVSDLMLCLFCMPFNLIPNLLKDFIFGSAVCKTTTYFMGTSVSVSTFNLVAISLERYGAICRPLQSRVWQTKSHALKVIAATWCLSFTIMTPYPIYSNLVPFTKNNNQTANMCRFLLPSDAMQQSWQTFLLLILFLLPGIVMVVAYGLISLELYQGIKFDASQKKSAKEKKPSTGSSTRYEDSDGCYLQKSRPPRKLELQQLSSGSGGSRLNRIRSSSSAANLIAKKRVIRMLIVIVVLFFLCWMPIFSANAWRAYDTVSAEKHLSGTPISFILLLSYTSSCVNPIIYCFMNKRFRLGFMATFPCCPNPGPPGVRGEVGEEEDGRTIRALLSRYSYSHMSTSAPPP

[2] = Compound was tested for solubility in water; assay type: ADME; settings: read-out: S
[3] = Tmax was determined; assay type: ADME, organism-based; settings: rat, in vivo
[4] = Bioavailability; assay type: ADME, organism-based; settings: rat, in vivo
[5] = Maximum plasma drug concentration was determined; assay type: ADME, organism-based; settings: rat
[6] = target: T2, Cholecystokinin receptor type A (Rattus norvegicus) (UniProt P30551); test: Compound was tested for its binding affinity by measuring the displacement of [125I]-BH CCK-8S from CCKA receptor in rat pancreas at a concentration of 3000 nM
T2 sequence (whole entry): T1 sequence (P30551 whole entry)

[7] = Plasma half-life was determined; assay type: ADME, organism-based; settings: rat
Rattus norvegicus = species: Rattus norvegicus; test: Compound was tested for its ability to block pentagastrin-induced single cell firing rate of rat ventromedial hyphalamic (VMH) neurons; assay type: functional

SMILES	IC50 [1] [µM]	inhibition [6] [%]	also measured
CCCN1C(=O)C(NC(=O)Nc2cccc(C)c2)N=C(N2CCN(C)CC2)c2ccccc21 (configuration not stated)	3.2		
CCCN1C(=O)[C@H](NC(=O)Nc2cccc(C)c2)N=C(N2CCN(C)CC2)c2ccccc21	> 3	11	solubility [2]: 0.6 mg/mL (≈ 1340 µM); Tmax [3]: 5 min; bioavailability [4]: 51%; Cmax [5]: 0.469 µg/mL; half-life [7]: 55 min; Kb (Rattus norvegicus): 0.0018 µM
Cc1cccc(NC(=O)N[C@@H]2N=C(c3ccccc3)c3ccccc3N3C[C@H](C)N=C23)c1	1.56		
Cc1cccc(NC(=O)NC2N=C(N3CCNCC3)c3ccccc3N(C)C2=O)c1 (configuration not stated)	> 3	3	
Cc1cccc(NC(=O)NC2N=C(N3CCN(C)CC3)c3ccccc3N(C)C2=O)c1 (configuration not stated)	4.26		
CCCN1C(=O)C(NC(=O)Nc2cccc(C(F)(F)F)c2)N=C(N2CCN(C)CC2)c2ccccc21 (configuration not stated)	3.8		
Cc1cccc(NC(=O)NC2N=C(N3CCN(C(=O)OC(C)(C)C)CC3)c3ccccc3N(C)C2=O)c1 (configuration not stated)	> 3	0	
CCCc1cccc(NC(=O)NC2N=C(N3CCN(C)CC3)c3ccccc3N(CCC)C2=O)c1 (configuration not stated)	5.31		
CCCN1C(=O)C(NC(=O)Nc2cccc(CC)c2)N=C(N2CCN(C)CC2)c2ccccc21 (configuration not stated)	> 3	46	
CCCN1C(=O)[C@@H](NC(=O)Nc2cccc(C)c2)N=C(N2CCN(C)CC2)c2ccccc21	1.9		
CCCN1C(=O)C(NC(=O)Nc2cccc(OC)c2)N=C(N2CCN(C)CC2)c2ccccc21 (configuration not stated)	> 3	15	
